What was measured:
[1] = tested on: 6PGDH; set-up: method as in PMID 9307279; details: might bind to the cofactor binding site; cited from earlier work
[2] = biological target: T1, T. brucei 6PGDH (Trypanosoma brucei brucei, UniProt P31072); details: for Hill slope: slope of the IC50 curve, recombinant Tb6PGDH; for Ligand efficiency: −RTLn(IC50)/HAC, HAC: heavy atom count; for confirmation of enzyme inhibition on re-test: second round, repurchased hits of the first screening
T1 sequence (P31072 1-479): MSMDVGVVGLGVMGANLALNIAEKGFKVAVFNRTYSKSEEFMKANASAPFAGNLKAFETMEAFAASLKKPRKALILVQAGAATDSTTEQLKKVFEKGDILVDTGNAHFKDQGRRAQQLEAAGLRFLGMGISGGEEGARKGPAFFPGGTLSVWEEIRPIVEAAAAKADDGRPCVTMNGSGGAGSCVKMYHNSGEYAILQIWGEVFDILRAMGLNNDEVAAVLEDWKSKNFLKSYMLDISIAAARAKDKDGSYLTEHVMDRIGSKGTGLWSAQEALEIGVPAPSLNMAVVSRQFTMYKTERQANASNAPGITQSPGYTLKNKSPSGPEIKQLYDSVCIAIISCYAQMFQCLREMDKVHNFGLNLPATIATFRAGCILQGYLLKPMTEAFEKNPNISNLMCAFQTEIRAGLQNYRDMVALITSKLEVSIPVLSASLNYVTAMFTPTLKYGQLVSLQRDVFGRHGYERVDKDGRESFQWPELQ
Procedure: (§1) Inhibition studies involved a reaction in 50 mM triethanolamine pH 7.0, 2 mM MgCl2. NADPH and 6PG were each at 20 μM. Total reaction volume was 1 ml. The reaction was followed in a Perkin Elmer UV–vis spectrophotometer. Compounds were dissolved in DMSO and initially added at 200 μM, then 50 μM.

[3] = biological target: T1, T. brucei 6PGDH; assay: biochemical
Procedure: as §1

SMILES	inhibition of 6PGDH [1]	Hill slope [2]	Ligand efficiency [2]	IC50 [3] [µM]	confirmation of enzyme inhibition on re-test [2]
NC(=O)c1ccc(N)nc1 [6-aminonicotinamide]	potential inhibitor of 6PGDH				
CCOC(=O)c1[nH]c(C(=O)O)c(C)c1C [Compound 1]		1.6	0.40 (kcal/mol)/HAC	45 ± 11	
O=C(O)c1cc(Cl)c[nH]1 [Compound 2]		1.8	0.66 (kcal/mol)/HAC	43 ± 9	
Cc1oc([N+](=O)[O-])cc1C(=O)O [Compound 3]		1.5	0.52 (kcal/mol)/HAC	28 ± 6	
NC(=O)N1CCCC1C(=O)O (centres unmarked) [Compound 4]					did not confirm the previous reported activity
NC(C(=O)O)c1ccsc1 (centres unmarked) [Compound 5]					did not confirm the previous reported activity
NC(CS(=O)(=O)O)C(=O)O (centres unmarked) [Compound 10]					did not confirm the previous reported activity
O=C1CC(S(=O)(=O)[O-])c2ccccc2/C1=N/O.[Na+] (centres unmarked) [Compound 11]		1.4	0.33 (kcal/mol)/HAC	73 ± 9	
Cc1c(C(=O)O)oc2c1C(=O)CSC2 [Compound 12]		1.7	0.42 (kcal/mol)/HAC	51 ± 3	
O=C(O)c1cc2sccc2[nH]1 [Compound 13]		1.1	0.54 (kcal/mol)/HAC	42 ± 7	
Cc1c(C(=O)O)[nH]c(-c2[nH]c(C(=O)O)c(C)c2C)c1C [Compound 14]		1.4	0.27 (kcal/mol)/HAC	114 ± 27	
O=C(O)C(=Cc1ccc([N+](=O)[O-])o1)C(=O)O [Compound 15]		5.2	0.36 (kcal/mol)/HAC	56 ± 6	
O=C1C=C(S(=O)(=O)[O-])c2ccccc2C1=O.[K+] [Compound 16]		4.8			
N#C/C(=C\c1ccc([N+](=O)[O-])o1)C(=O)O [Compound 17]		2.0	0.48 (kcal/mol)/HAC	5.8 ± 0.6	
O=C(O)c1cc(Cl)c(Cl)[nH]1 [Compound 18]		2.1	0.60 (kcal/mol)/HAC	42 ± 3.7	

Source: publication PMC2939770 (Bioorganic & Medicinal Chemistry, 2010)
